The text below walks through data of patent publication US7101908B2, “Bicyclic carbohydrate compounds useful in the treatment of infections caused by herpesviridae” (Kemin Pharma Europe B.V.B.A., priority 2001, dated 2006).

The test system of data set [1] is CMV Davis strain. Briefly: Plaque reduction assay in HEL cells, CMV Davis strain. It counts as cell-based, human cytomegalovirus. To be noted: human embryonic lung fibroblast (HEL) cells; for IC50: Human betaherpesvirus 5, HEL, 168 h, plaques counted on day 7, read-out: IC50 CMV David Strain (inhibitory concentration required to reduce virus plaque formation by 50%). The procedure: (§1) The compounds were screened against various pathogenic viruses and more specific the human cytomegalovirus (CMV). […] After 2 hours of incubation at 37° C., the infected cells were replenished with 0.1 ml of medium containing serial dilutions of the test compound. On day 7 the plaques were counted microscopically after staining the cells with Giemsa's solution. The minimum antiviral concentration was expressed as the dose required to inhibit virus-induced plaque formation by 50%.
(Plaques are areas of infected cells; plaque reduction assays count them against a control.)

Data set [2] concerns CMV AD-169 strain. Briefly: Plaque reduction assay in HEL cells, CMV AD-169 strain. The settings on record: human embryonic lung fibroblast (HEL) cells; for IC50: Human betaherpesvirus 5, AD169, HEL, 168 h, plaques counted on day 7, read-out: IC50 CMV AD-169 Strain (inhibitory concentration required to reduce virus plaque formation by 50%); for IC50 CMV AD-169 Strain (inhibitory concentration required to reduce virus plaque formation by 50%): plaques counted on day 7. The data set is classed as cell-based, human cytomegalovirus. As to the method:
as §1

The conditions of data set [3]: intravenous ganciclovir; people; cited from earlier work.

As a reminder, the melting point is the temperature, or range, at which the solid turns liquid.

In brackets after ≈: the same amount, converted by molar mass.

Regarding `CO[C@@H]1[C@@H](OC)[C@H](c2ccccc2)O[C@@H]2CO[C@@H](c3ccccc3)O[C@@H]12` [Compound A1], the melting point fell in the range of 97 to 98 °C. Besides, in data set [1], the IC50 is 2 µg/mL (≈ 5.61 µM). For the same compound, the IC50 in data set [2] stood at 2.7 µg/mL (≈ 7.58 µM).

With `CO[C@@H]1[C@@H](OC)[C@H](Cc2ccccc2)O[C@@H]2CO[C@@H](c3ccccc3)O[C@@H]12` [Compound A2], the IC50 in data set [1] was determined as 20 µg/mL (≈ 54 µM); in data set [2] it was 5 µg/mL (≈ 13.5 µM).

`CCO[C@@H]1[C@@H](OCC)[C@H](Cc2ccccc2)O[C@@H]2CO[C@@H](c3ccccc3)O[C@@H]12` [Compound A3] returned a melting point of 87 to 89 °C. In data set [1], the IC50 worked out at 3.2 µg/mL (≈ 8.03 µM). The “IC50 CMV David Strain (inhibitory concentration required to reduce virus plaque formation by 50%)” value in data set [1] (plaques counted on day 7) is 2.8 µg/mL (≈ 7.03 µM). In data set [2], the IC50 is 2.5 µg/mL (≈ 6.27 µM) and the “IC50 CMV AD-169 Strain (inhibitory concentration required to reduce virus plaque formation by 50%)” value was found to be 2.7 µg/mL (≈ 6.78 µM).

On to `C#CCO[C@@H]1[C@@H](OCC#C)[C@H](Cc2ccccc2)O[C@@H]2CO[C@@H](c3ccccc3)O[C@@H]12` [Compound A5], for which the melting point lay in the range of 81 to 83 °C. Further, the IC50 in data set [1] turned out to be 0.5 µg/mL (≈ 1.19 µM). In addition, the IC50 in data set [2] is 0.5 µg/mL (≈ 1.19 µM).

As for `CO[C@@H]1[C@@H](OC)[C@H](c2ccccc2)O[C@@H]2CO[C@@H](c3ccc4ccccc4c3)O[C@@H]12` [Compound A6], the melting point was 135 °C. For the same compound, in data set [1], the IC50 was determined as 0.8 µg/mL (≈ 1.97 µM). Further, the IC50 in data set [2] worked out at 0.47 µg/mL (≈ 1.16 µM).

For the compound `CO[C@@H]1[C@@H](OC)[C@H](c2ccccc2)O[C@@H]2CO[C@@H](c3ccc(-c4ccccc4)cc3)O[C@@H]12` [Compound A7], the melting point was in the range of 111 to 112 °C. In data set [1], the IC50 worked out at 0.6 µg/mL (≈ 1.39 µM). In data set [2], the IC50 turned out to be 0.8 µg/mL (≈ 1.85 µM).

Turning to `Nc1nc(O)c2ncn(COC(CO)CO)c2n1` [Ganciclovir, reference compound], the IC50 in data set [1] turned out to be 0.5 µg/mL (≈ 1.96 µM). Also, the “IV recipients who have to stop treatment because of side effects” value in data set [3] was “More than 10%”. Moreover, in data set [2], the IC50 worked out at 1.3 µg/mL (≈ 5.09 µM) and the “IC50 CMV AD-169 Strain (inhibitory concentration required to reduce virus plaque formation by 50%)” value was determined as 2.5 µg/mL (≈ 9.79 µM).
